Key:
PglH [1] = target: T1, PglH (Campylobacter jejuni, UniProt Q0P9C5); assay: ([…] Å); IC50 with purified PglH; format: biochemical
T1 construct: PglH with C-terminal His10 tag

PglH [2] = target: T1, PglH; assay: crystal structure of ternary complex with synthetic LLO ([…] Å); IC50 with purified PglH; format: biochemical

T1 sequence (Q0P9C5 whole entry): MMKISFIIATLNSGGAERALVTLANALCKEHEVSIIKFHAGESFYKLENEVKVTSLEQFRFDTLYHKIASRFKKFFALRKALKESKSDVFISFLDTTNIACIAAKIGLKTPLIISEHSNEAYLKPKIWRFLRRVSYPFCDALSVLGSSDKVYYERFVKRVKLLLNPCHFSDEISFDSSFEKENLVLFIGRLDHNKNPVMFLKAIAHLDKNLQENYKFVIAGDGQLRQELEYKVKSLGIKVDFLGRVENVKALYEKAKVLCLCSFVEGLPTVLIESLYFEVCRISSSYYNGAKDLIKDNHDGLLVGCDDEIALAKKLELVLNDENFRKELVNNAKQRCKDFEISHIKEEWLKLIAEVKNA

Compound	IC50 (PglH [1]) [µM]	IC50 (PglH [2]) [mM]
CC(=O)N[C@@H]1[C@@H](O)[C@@H](O)[C@@H](CO)O[C@@H]1CP(=O)(O)OP(=O)(O)OC[C@@H]1O[C@@H](n2ccc(=O)[nH]c2=O)[C@H](O)[C@@H]1O [UDP-CH2-GalNAc]	303 ± 24	–
O=c1ccn([C@@H]2O[C@H](COP(=O)(O)OP(=O)(O)O)[C@@H](O)[C@H]2O)c(=O)[nH]1 [UDP]	–	1.02 ± 0.087
